The source of these data is patent publication US20240082424A1, “CLATHRATE IN WHICH EQUOL IS INCLUDED IN CYCLODEXTRIN, EQUOL-ABSORBENT COMPOSITION CONTAINING SAID CLATHRATE, AND PRODUCTION METHOD THEREFOR” (DAICEL CORPORATION, priority 2020, published 2024).

A short description of data set [1]: Solubility test (equol concentration dissolved in water). In kind it is physicochemical. To be noted: thermodynamic from solid; 300 mg dried product A-1 or 10 mg equol in 10 mL water, stirred at room temperature 2 hours, 0.2-μm filtered; read-out: concentration of equol in the solution (solubility in water). As for the experimental part: The dried product A-1 containing an equol clathrate prepared in <<Preparation of Equol Clathrate>> described above was subjected to a solubility test. As a control, a solubility test was performed on equol (available from LC Laboratories) alone.
Specifically, solubility tests were conducted under the following conditions.
300 mg of the dried product A-1 containing an equol clathrate was weighed and mixed with 10 mL of water. Then, the mixture was stirred at room temperature for 2 hours. This liquid was filtered through a 0.2-μm filter, resulting in a solution B-1 of the dried product A-1 containing an equol clathrate. The equol concentration of the solution B-1 was analyzed.
Meanwhile, 10 mg of equol (available from LC Laboratories) was weighed and subjected to the same operation, resulting in a liquid C-1 containing equol alone. The concentration of equol dissolved in the solution C-1 was analyzed.

Data set [2] can be described thus: Pharmacokinetics (PK) analysis by oral administration in rats. It counts as in vivo, Crl:CD (SD) rats. To be noted: single oral dose, rat plasma, 0.5% CMC suspension, equol clathrate 100 mg/kg, equol 6.3 mg/kg. As for the experimental part:
The equol clathrate A-1 prepared in <<Preparation of Equol Clathrate>> was subjected to pharmacokinetics (PK) analysis using 6-week-old Crl:CD (SD) rats by oral administration. As a control, pharmacokinetics (PK) analysis of equol (available from LC Laboratories) alone was also performed.
Specifically, the administered dose of the equol clathrate A-1 was 100 mg/kg, whereas the dose of equol (available from LC Laboratories) was 6.3 mg/kg, an amount considered to be equivalent to 100 mg/kg of the equol clathrate A-1.
The administered dose of the equol clathrate A-1 and the administered dose of equol were each administered as a single oral dose to 3 animals/group. The test substance used for the administration sample was suspended in 0.5% CMC aqueous solution, and the administered volume was 10 mL/kg.
PK was measured using plasma, and blood was collected at 0 min, 30 min, 1 h, 2 h, 6 h, 12 h, and 24 h. After 24 hours of blood collection, the rats were euthanized.
Note that, in Table 2, “Cmax” means maximum blood concentration, “Tmax” means time to reach Cmax, and “AUC0-24” means area.

≈ marks a conversion by molar mass, not a printed value.

Regarding `Oc1ccc([C@H]2COc3cc(O)ccc3C2)cc1` [equol], in data set [1], the solubility at 2 h amounted to 100 µg/mL (≈ 413 µM). The Cmax in data set [2] (Crl:CD (SD), read-out: Cmax (maximum blood concentration)) was 41.6 ng/mL. For the same molecule, in data set [2], the AUC0-24 (area) came out at 363 ng·h/mL.
